These results are taken from the OPERA property sets (Mansouri et al. 2018).

As for `CC(=O)N(C)/N=N/c1ccc(F)cc1`, the log partition coefficient (logP) – broadly, the decadic logarithm of the partition coefficient of the neutral form, usually between octanol and water – came to 2.77.
As to `CC(=O)Nc1n[nH]c(NC(C)=O)n1`, the logP is -1.02.
For the compound `Cc1ccccc1NC(=O)CN1CCCCC1`, the log partition coefficient (logP) was 2.26.
With `CCOC(=O)C(=Cc1ccc(OC)cc1)C(=O)OCC`, the logP was 3.28.
Consider `CCCOn1c(=O)c(Br)c(C)n(C)c1=O`, for which the logP amounted to 0.72.
With `CSc1nnc(C(C)C)c(=O)n1N` the figure was 1.01.
Turning to `CS(=O)(=O)c1ccc(NS(=O)(=O)C(F)(F)F)cc1`, the logP worked out at 1.99.
`CCOC(=O)CCCCCn1nnc2ccccc21` gave a logP of 2.68.
Under `CCCCSc1ccccc1OC(=O)NC` stands 2.98.
The compound `O=NN(CCF)C(=O)NC1CCSCC1` returned a logP of 1.43.
Under `CN(C)N=[N+]([O-])c1ccccc1` stands 1.8.
As to `CN(C)C(=O)COc1ccccc1`, the log partition coefficient (logP) is 0.8.
`Cc1cc(-n2[nH]c(C)cc2=O)nc(C)n1`: the logP stood at 0.89.
Compound `Cc1cnc2cccc(C)n2c1=O` displayed a logP of 1.26.
Take `CCc1c(OC)cc(Cc2cnc(N)nc2N)cc1OC`: the logP is 2.72.
Under `Fc1cccc(Cl)c1N=C1NCCN1` stands 1.45.
`Nc1ccc(C(O)C(CO)NC(=O)C(Cl)Cl)cc1` (stereo not drawn) displayed a lipophilicity (logP) of -0.29.
With `CC1NCCN1CCO` (stereo not drawn) the figure was -1.93; with `CC(=O)Oc1ccc(N=C2C=CC(=O)C=C2)cc1`, 1.43; with `OCC(CO)(CO)CBr`, -0.7.
Take `CCCCCn1nnc2ccccc21`: the log partition coefficient (logP) was determined as 3.22.
With `COc1ccc(Cc2cnc(N)nc2N)c(OC)n1` the figure was 2.01; with `COc1cccc(NC=O)c1`, 1.25.
With `CCCCCCCCCCCC[n+]1cc(C)cc(C)c1.[I-]` the figure was 1.91; with `Nc1nc(N)nc(-c2cc(Br)ccc2F)n1`, 1.94.
The compound `CCCCCCCCCC[n+]1cc(C)cc(C)c1.[I-]` yielded a log partition coefficient (logP) of 0.76.
`COCN1C(=O)CN=C(c2ccccc2F)c2cc(N)ccc21` displayed a logP of 1.31.
`CC1=NS(=O)(=O)c2c(Cl)cccc2N1` registered a lipophilicity (logP) of 0.62.
`O=C(O)Cc1ccc(OCc2ccccc2)cc1`: the logP is 2.72.
With `CC(=O)OCCN1CCS/C1=N/c1ncc([N+](=O)[O-])s1` the figure was 1.88; with `CCS(=O)(=O)CCn1ccnc1[N+](=O)[O-]`, -0.58.
The compound `CC(=O)C(C#N)=NNc1ccc(Cl)cc1` displayed a logP of 4.1.
`O=C(NC(CO)C(O)c1ccccc1)C(Cl)Cl` (stereo not drawn) showed a logP of 0.94.
With `CC(=O)N=C1SC(=Cc2ccc([N+](=O)[O-])o2)C(=O)N1C` the figure was 1.21.
`O=C(O)CCSc1c[nH]c2ccccc12` had a logP of 2.15.
The compound `CCCOn1c(=O)cc(C)[nH]c1=O` yielded a logP of 0.3.
In the case of `CCc1cc(NC(C)=O)ccc1O`, the logP is 1.31.
With `O=[N+]([O-])c1cnc(N=C2NCCN2)s1` the figure was 1.38; with `CCCCCOn1c(=O)[nH]c(C)c(Br)c1=O`, 1.69.
For the compound `CCN(CC)CCCNC(=O)c1ccccc1`, the logP was 1.56. This logP and that of the compound before are within 0.2 log units of each other.
In turn, `COP(=O)(NC(C)(C)C)SC` (stereo not drawn) registered a logP of 0.96.
The compound `CCCCC1OC(=O)c2cc(N)ccc21` (stereo not drawn) yielded a lipophilicity (logP) of 2.86.
With `CCN1C(=O)CN=C(c2ccccc2)c2cc(N)ccc21` the figure was 1.81; with `NC1CC2CC1c1ccccc12` (stereo not drawn), 2; with `O=C(CN1CCCCC1)Nc1ccccc1Cl`, 2.76.
Under `CC1CN(N=O)CC(C)N1N=O` (stereo not drawn) stands 0.08.
In turn, `O=C1CN=C(c2cccc(Cl)c2)c2cc(Br)ccc2N1` registered a logP of 3.63.
`CCOC(=O)C(=Cc1ccc2c(c1)OCO2)C(C)=O` returned a logP of 2.35.
`FC(F)OC(F)(F)C(F)Cl` (stereo not drawn) yielded a log partition coefficient (logP) of 2.1.
Compound `CSc1ccccc1/N=N/N(C)C` gave a lipophilicity (logP) of 3.13.
Consider `COc1cc(Cc2cnc(N)nc2N)cc(OC)c1C(C)C`, for which the lipophilicity (logP) was 3.37.
As for `CC(C)(C)c1nnc(N)o1`, the logP worked out at 0.48.
The compound `CCOP(=S)(OCC)SCS(=O)CC` (stereo not drawn) yielded a logP of 1.78.
